Tested on: yeast genes (expressed mRNA)
Assay: DNA chip measurement of expressed mRNA of yeast genes after culture with a toxic chemical substance
Type: cell-based, Saccharomyces cerevisiae S288C
Description: Yeast (Saccharomyces cerevisiae S288C (a SUC2mal mel gap2 CUP1)) were cultured at 25° C. on YPD medium (yeast extract 1%, polypeptone 2%, glucose 2%). One of toxic chemical substances was added to the cell at logarithmic growth phase, and the cell was further cultured for two hours. Cell was cultured without any chemical substance in the same condition, and was used as a control. Concentrations of the chemical substances were defined to inhibit the growth of the yeast but not lead to death.
After the completion of cultivation, the culture was centrifuged to collect the cells. To the cells, sodium acetate buffer (50 mM sodium acetate, 10 mM EDTA, 1% SDS) was added, and the mixture was shaken at 65° C. for five minutes, followed by returning to room temperature, and obtaining the supernatant, which procedure was repeated two times. To the supernatant, ½ amount of a solution of phenol/chloroform (1:1) was added, and the mixture was centrifuged to give a supernatant, an equal amount of chloroform was added, and the mixture was centrifuged to give a supernatant. To the supernatant, an equal amount of isopropanol containing 0.3 M sodium acetate was added, and the mixture was allowed to stand at room temperature for 30 minutes, after which the mixture was centrifuged to give sediment of the whole RNAs. Seventy % ethanol was added to the sediment, and the mixture was again centrifuged to give sediment, which was then dried and dissolved in water. mRNA was isolated from the whole RNAs as followings. In view of the fact that a poly A chain is attached to the 3′ terminus of mRNA, a polynucleotide having a poly T structure which was immobilized on the surface of latex beads was used to trap the mRNA, and then the mRNA was washed and eluted with spine column (Oligotex-dT30<Super>mRNA Purification Kit, Takara). Reverse transcription of the mRNA was conducted with a reverse transcriptase (Super Script II Reverse Transcriptase; catalogue No. 18064-014, GibcoBRL) using fluorescence-labeled nucleotides to give cDNAs that were introduced with Cy3-dUTP or Cy5-dUTP during the reverse transcription.
The labeled cDNAs were dissolved in TE buffer (10 mM Tris-HCl/1 mM EDTA, pH 8.0), and the solution was dropped on the DNA chip containing the whole genes of yeast (DNA Chip Research Inc. Japan) so that the cDNAs were hybridized on the DNA chip at 65° C. for over 12 hours. The fluoresces intensity of the DNA chip was read with a scanner, and the ratio relative to the fluorescence intensity resulting from the absence of chemical substance was estimated as the following, which is shown in Tables 1 to 9.
In the Tables, “Intensity” indicated in the rightmost column is a value of the level of expressed mRNA of each gene in control cells as divided by the average level of the expressions of the whole genes. A gene of which mRNA level is lower in control, and is higher in cases of addition of chemical substance, is especially useful in the detection of toxic substances.
Here, when a ratio of an amount of mRNA expressed in the presence of the chemical substance to an amount of mRNA expressed in the absence of the chemical substance is two or more, then it is considered significant.

CCCCC[C@H](O)CC(=O)CCc1ccc(O)c(OC)c1 [(13), Gingerol]
The level of expressed mRNA in the presence of chemical substance/The level of expressed mRNA in the absence of chemical substance, yeast gene YDL067C (gene YDL067C (mitochondria-located protein gene), yeast cultured two hours with chemical substance, DNA chip fluorescence ratio to control): 0.6 | The level of expressed mRNA in the presence of chemical substance/The level of expressed mRNA in the absence of chemical substance, yeast gene YDR079W (gene YDR079W (mitochondria-located protein gene), yeast cultured two hours with chemical substance, DNA chip fluorescence ratio to control): 1.3 | level of expressed mRNA in the presence of chemical substance / level in the absence of chemical substance (yeast gene YAL018C, cultured two hours with the chemical substance): 1.3 | The level of expressed mRNA in the presence of chemical substance/The level of expressed mRNA in the absence of chemical substance (yeast gene YAR028W, cultured two hours with substance): 1.4 | level of expressed mRNA in the presence of chemical substance / level in the absence of chemical substance (yeast gene YAR047C, cultured two hours with the chemical substance): 1.4 | level of expressed mRNA in the presence of chemical substance / level in the absence of chemical substance (yeast gene YAR064W, cultured two hours with the chemical substance): 1.1 | level of expressed mRNA in the presence of chemical substance / level in the absence of chemical substance (yeast gene YBL044W, cultured two hours with the chemical substance): 0.7 | The level of expressed mRNA in the presence of chemical substance/The level of expressed mRNA in the absence of chemical substance (yeast gene YBL048W, cultured two hours with substance): 2.7 | level of expressed mRNA in the presence of chemical substance / level in the absence of chemical substance (yeast gene YBR012C, cultured two hours with the chemical substance): 2.1 | The level of expressed mRNA in the presence of chemical substance/The level of expressed mRNA in the absence of chemical substance (yeast gene YBR047W, cultured two hours with substance): 1.7 | The level of expressed mRNA in the presence of chemical substance/The level of expressed mRNA in the absence of chemical substance (yeast gene YBR062C, cultured two hours with substance): 2.8 | level of expressed mRNA in the presence of chemical substance / level in the absence of chemical substance (yeast gene YBR066C, cultured two hours with the chemical substance): 0.6 | level of expressed mRNA in the presence of chemical substance / level in the absence of chemical substance (yeast gene YBR124W, cultured two hours with the chemical substance): 0.9 | level of expressed mRNA in the presence of chemical substance / level in the absence of chemical substance (yeast gene YBR162C, cultured two hours with the chemical substance): 0.7 | The level of expressed mRNA in the presence of chemical substance/The level of expressed mRNA in the absence of chemical substance (yeast gene YBR185C, mitochondria-located protein gene, cultured two hours with substance): 1.0 | level of expressed mRNA in the presence of chemical substance / level in the absence of chemical substance (yeast gene YBR287W, cultured two hours with the chemical substance): 3.4 | level of expressed mRNA in the presence of chemical substance / level in the absence of chemical substance (yeast gene YCL042W, cultured two hours with the chemical substance): 7.5 | level of expressed mRNA in the presence of chemical substance / level in the absence of chemical substance (yeast gene YCL056C, cultured two hours with the chemical substance): 1.3 | level of expressed mRNA in the presence of chemical substance / level in the absence of chemical substance (yeast gene YCR007C, cultured two hours with the chemical substance): 1.5 | The level of expressed mRNA in the presence of chemical substance/The level of expressed mRNA in the absence of chemical substance (yeast gene YCR030C, cultured two hours with the chemical substance): 1.7 | level of expressed mRNA in the presence of chemical substance / level in the absence of chemical substance (yeast gene YDL046W, cultured two hours with the chemical substance): 1.5 | The level of expressed mRNA in the presence of chemical substance/The level of expressed mRNA in the absence of chemical substance (yeast gene YDL174C, cultured for two hours with substance): 5.9 | The level of expressed mRNA in the presence of chemical substance/The level of expressed mRNA in the absence of chemical substance (yeast gene YDR001C, cultured for two hours with substance): 2.8 | level of expressed mRNA in the presence of chemical substance / level in the absence of chemical substance (yeast gene YDR090C, cultured two hours with the chemical substance): 0.8 | level of expressed mRNA in the presence of chemical substance / level in the absence of chemical substance (yeast gene YDR128W, cultured two hours with the chemical substance): 1.1 | level of expressed mRNA in the presence of chemical substance / level in the absence of chemical substance (yeast gene YDR133C, cultured two hours with the chemical substance): 0.1 | The level of expressed mRNA in the presence of chemical substance/The level of expressed mRNA in the absence of chemical substance (yeast gene YDR214W, cultured two hours with substance): 5.3 | level of expressed mRNA in the presence of chemical substance / level in the absence of chemical substance (yeast gene YDR250C, cultured two hours with the chemical substance): 1.2 | level of expressed mRNA in the presence of chemical substance / level in the absence of chemical substance (yeast gene YDR278C, cultured two hours with the chemical substance): 0.7 | level of expressed mRNA in the presence of chemical substance / level in the absence of chemical substance (yeast gene YDR281C, cultured two hours with the chemical substance): 0.7 | level of expressed mRNA in the presence of chemical substance / level in the absence of chemical substance (yeast gene YDR366C, cultured two hours with the chemical substance): 0.8 | The level of expressed mRNA in the presence of chemical substance/The level of expressed mRNA in the absence of chemical substance (yeast gene YDR377W, mitochondria-located protein gene, cultured two hours with substance): 0.7 | The level of expressed mRNA in the presence of chemical substance/The level of expressed mRNA in the absence of chemical substance (yeast gene YDR486C, cultured two hours with substance): 1.7 | The level of expressed mRNA in the presence of chemical substance/The level of expressed mRNA in the absence of chemical substance (yeast gene YDR506C): 0.3 | The level of expressed mRNA in the presence of chemical substance/The level of expressed mRNA in the absence of chemical substance (yeast gene YDR533C, cultured two hours with substance): 3.0 | The level of expressed mRNA in the presence of chemical substance/The level of expressed mRNA in the absence of chemical substance (yeast gene YEL024W, mitochondria-located protein gene, cultured two hours with substance): 0.6 | The level of expressed mRNA in the presence of chemical substance/The level of expressed mRNA in the absence of chemical substance (yeast gene YER037W, cultured two hours with substance): 3.0 | The level of expressed mRNA in the presence of chemical substance/The level of expressed mRNA in the absence of chemical substance (yeast gene YER079W, cultured two hours with substance): 2.1 | The level of expressed mRNA in the presence of chemical substance/The level of expressed mRNA in the absence of chemical substance (yeast gene YFL014W, DNA repair protein genes, cultured two hours with substance): 15.2 | The level of expressed mRNA in the presence of chemical substance/The level of expressed mRNA in the absence of chemical substance (yeast gene YFL032W, cultured two hours with substance): 2.4 | The level of expressed mRNA in the presence of chemical substance/The level of expressed mRNA in the absence of chemical substance (yeast gene YFL044C, cultured two hours with substance): 4.7
